Reference: patent US8158389B2, “Products and methods for in vivo secretion of monatin” (priority 2005, dated 2012)
“And” between values parts separate entries of the source, which are not always exact repeats. Identical values can stand only once. Like-named read-outs stand apart in the source and are kept apart here. Marks after values point to notes of the source that are not given here.

What was measured:
EmrAB efflux pump = target: T1, EmrAB efflux pump (Escherichia coli, UniProt P0AEJ0); experiment: Monatin efflux per dry cell weight after induction of the EmrAB efflux pump with CCCP; format: cell-based; conditions: for increase in monatin/dcw: 31 hours, vs control
T1 construct: endogenous in cells; host or cells: E. coli MG1655 with aspC/proA on pProNde; E. coli BL21 (DE3) with aspC/proA on pET30
T1 sequence (P02930 23-493): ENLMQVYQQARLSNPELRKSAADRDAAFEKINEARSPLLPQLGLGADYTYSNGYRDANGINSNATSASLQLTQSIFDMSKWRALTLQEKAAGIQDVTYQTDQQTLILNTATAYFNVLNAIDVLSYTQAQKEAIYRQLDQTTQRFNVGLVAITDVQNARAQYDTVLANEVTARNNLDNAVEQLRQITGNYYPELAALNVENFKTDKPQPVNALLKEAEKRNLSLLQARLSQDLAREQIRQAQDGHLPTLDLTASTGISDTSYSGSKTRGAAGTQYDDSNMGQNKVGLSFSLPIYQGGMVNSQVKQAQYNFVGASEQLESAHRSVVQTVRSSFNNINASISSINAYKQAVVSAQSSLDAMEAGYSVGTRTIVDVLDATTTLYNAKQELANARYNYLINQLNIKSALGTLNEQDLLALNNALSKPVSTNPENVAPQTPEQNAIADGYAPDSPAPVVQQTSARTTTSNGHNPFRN
T1 sequence (P0AEJ0 whole entry): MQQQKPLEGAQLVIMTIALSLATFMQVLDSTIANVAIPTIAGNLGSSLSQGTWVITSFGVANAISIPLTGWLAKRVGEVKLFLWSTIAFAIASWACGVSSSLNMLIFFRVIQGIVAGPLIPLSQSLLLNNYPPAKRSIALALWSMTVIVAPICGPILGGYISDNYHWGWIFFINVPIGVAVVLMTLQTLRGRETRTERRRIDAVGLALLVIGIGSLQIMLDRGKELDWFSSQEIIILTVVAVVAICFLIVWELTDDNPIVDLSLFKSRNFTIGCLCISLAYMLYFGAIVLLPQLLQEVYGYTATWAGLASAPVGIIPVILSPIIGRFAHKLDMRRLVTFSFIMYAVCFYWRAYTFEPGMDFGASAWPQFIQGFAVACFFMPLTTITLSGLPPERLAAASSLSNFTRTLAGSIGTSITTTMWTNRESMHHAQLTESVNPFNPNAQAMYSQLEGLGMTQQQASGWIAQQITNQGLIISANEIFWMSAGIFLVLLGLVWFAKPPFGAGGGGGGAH
T1 sequence (P27303 whole entry, further chain): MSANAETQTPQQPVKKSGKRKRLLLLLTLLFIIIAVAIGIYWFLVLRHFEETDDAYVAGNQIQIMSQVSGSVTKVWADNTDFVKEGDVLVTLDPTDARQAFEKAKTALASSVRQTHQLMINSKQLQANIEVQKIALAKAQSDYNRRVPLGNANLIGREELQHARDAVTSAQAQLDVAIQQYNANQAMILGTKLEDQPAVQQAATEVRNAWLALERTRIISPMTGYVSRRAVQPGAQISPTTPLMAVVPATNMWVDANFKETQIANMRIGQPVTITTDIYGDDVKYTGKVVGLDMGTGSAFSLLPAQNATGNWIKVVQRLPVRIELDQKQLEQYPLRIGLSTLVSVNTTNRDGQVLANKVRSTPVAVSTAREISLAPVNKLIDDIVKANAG
Description: The strains used for the experiment included E. coli MG1655 : : aspC/proA/pProNde and E. coli BL21 (DE3) : : aspC/proA/pET30. For inoculum, the E. coli strains were grown overnight at 37° C. and 250 rpm in Luria-Bertani (“LB”) medium with 50 μg/mL kanamycin.
For the experimental treatments, Trp-1+ glucose medium, a minimal medium that has been used for increased production of tryptophan in E. coli cells (Zeman, et al. Folia Microbiol. 35:200-204, (1990)), was prepared as follows. To 800 mL nanopure water the following reagents were added: 2 g (NH4)2SO4 and 13.6 g KH2PO4. The pH was adjusted to 7.0, the volume was increased to 948 mL, and the medium was autoclaved. Following sterilization, 0.2 g MgSO4.7H2O, 0.01 g CaCl2.2H2O, and 0.5 mg FeSO4.7H2O were added to the medium in a 1.8 mL volume followed by addition of 0.2 mL of Neidhardt's micronutrient solution. Neidhardt, F. C., et al., “Culture medium for Enterobacteria,” J. Bacteriol. 119:736-746 (1974). Neidhardt's medium includes (per liter): 0.18 g (NH4)6(MO7)24.4H2O, 1.24 g H3BO3, 0.36 g CoCl2.6H2O, 0.12 g CuSO4 (anhydrous), 0.8 g MnCl2.4H2O, and 0.14 g ZnSO4.7H2O. A 50% glucose solution was prepared separately and sterile-filtered. Forty mL of glucose solution and 10 mL of 1 M 3-Morpholinopropanesulfonic acid (“MOPS”) buffer were added to the base medium (950 mL) for a 1 L final volume.
Conditions for the treatments included 250 rpm agitation throughout and 37° C. up to induction, then, 30° C. following induction. At 0.5-0.6 OD600 nm, induction of the plasmid genes was initiated. At induction, 0.5 mM IPTG, 0.5% arabinose, 0.5 mM pyridoxine hydrochloride, and 0.2 mL of Balch's vitamins were added. […] Some treatments included 10 μM carbonyl cyanide 3-chlorophenylhydrazone (“CCCP”) addition to initial medium. One treatment included an additional 10 μM CCCP dose at 3.5 hours following induction. CCCP induces the EmrB efflux system. Samples for monatin analysis and dry cell weight determination were taken at 10, 15.5, 25.6 and 31 hours. Monatin analysis was preformed as described in Example 13.
Analyses of mixtures for monatin and tryptophan derived from in vitro or in vivo biochemical reactions were performed using a Waters/Micromass liquid chromatography-tandem mass spectrometry (“LC/MS/MS”) instrument including a Waters 2795 liquid chromatograph with a Waters 996 Photo-Diode Array (PDA) absorbance monitor placed in series between the chromatograph and a Micromass Quattro Ultima triple quadrupole mass spectrometer. LC separations were made using an Xterra MS C8 reversed-phase chromatography column, 2.1 mm×250 mm at 40° C. The LC mobile phase consisted of A) water containing 0.05% (v/v) trifluoroacetic acid and B) methanol containing 0.05% (v/v) trifluoroacetic acid.
The gradient elution was linear from 5% B to 35% B, 0-4 min, linear from 35% B to 60% B, 4-6.5 min, linear from 60% B to 90% B, 6.5-7 min, isocratic at 90% B 7-11 min, linear from 90% B to 95% B, 11-12 min, linear from 95% B to 5% B, 12-13 min, with a 5 min re-equilibration period between runs. The flow rate was 0.25 mL/min, and PDA absorbance was monitored from 200 nm to 400 nm. All parameters of the ESI-MS were optimized and selected based on generation of protonated molecular ions ([M+H]^+) of the analytes of interest, and production of characteristic fragment ions. The following instrumental parameters were used for LC/MS/MS Multiple Reaction Monitoring (“MRM”) analysis of monatin and tryptophan: Capillary: 3.5 kV; Cone: 40 V; Hex 1: 20 V; Aperture: 0 V; Hex 2: 0 V; Source temperature: 100° C.; Desolvation temperature: 350° C.; Desolvation gas: 500 L/h; Cone gas: 50 L/h; Low mass resolution (Q1): 12.0; High mass resolution (Q1): 12.0; Ion energy: 0.2; Entrance: −5 V; Collision Energy: 8; Exit: 1V; Low mass resolution (Q2): 15; High mass resolution (Q2): 15; Ion energy (Q2): 3.5; Multiplier: 650. […]

[1] = system: E. coli BL21DE3::aspCproApET30; experiment: Growth (optical density) with CCCP, wild type control; format: cell-based, Escherichia coli; conditions: 20 μM CCCP
Description: (§1) Single chloramphenicol-resistant colonies were purified by restreaking on appropriate selective media and single colonies were tested by PCR as previously described for the BW25113 knockout strains, to verify the presence of the emrB and acrAB knockouts. The effects of the emrB and acrAB knockouts on the EmrAB and AcrAB transporter systems respectively were determined by assessing the phenotype of the transport mutants using appropriate antibiotics and comparison to wild type control microorganisms as shown in Table 3.1 and Table 3.2 below.

[2] = system: E. coli BL21DE3ΔemrB::aspCproApET30; experiment: Growth (optical density) with CCCP, emrB knockout mutant; format: cell-based, Escherichia coli; conditions: 20 μM CCCP
Description: as §1

[3] = system: E. coli BL21 DE3 aspC/proA on pET30; experiment: Monatin excretion with glucose or malate as carbon source; format: cell-based, Escherichia coli
Description: For inoculum, E. coli BL21 DE3 aspC/proA on pET30 was grown overnight in LB medium with 50 μg/mL kanamycin at 37° C. and 250 rpm. For the experimental treatments, Trp-1 medium, as described in Example 6 (Zeman, et al. Folia Microbiol. 35:200-204, (1990)), and 50 μg/mL kanamycin was used. Malate and glucose were 4 g/L initially for their respective treatments. For treatment flasks, 2.2 v/v % of inoculum was added to 50 mL medium volume in 250 mL baffled shake flasks. For glucose treatments, induction of the monatin operon was initiated at 0.8 OD600 nm. For malate treatments, induction was at 0.25 OD. At induction, 0.5 mM IPTG, 0.5 mM pyridoxine hydrochloride, and 0.2 mL of Balch's vitamins (Balch, W. E., et al., “Methanogens: reevaluation of a unique biological group,” Microbiol. Rev. 43:260-296 (1979)) were added. Temperature was reduced to 30° C. at induction.

[4] = system: C. glutamicum ATCC 13032 transformed with aspCProApEKEX-2
Description: C. glutamicum ATCC 13032 strains transformed with aspCProApEKEX-2 were grown overnight in LB medium supplemented with 25 μg/mL kanamycin incubated at 37° C. and shaking at 250 rpm. For the experimental treatment flasks, 100 mL of Krämer's A medium was used in each shake flask. Hoischen, C. and Krämer, R., “Evidence for an efflux carrier system involved in the secretion of glutamate by Corynebacterium glutamicum,” Arch. Microbiol 151:342-347, (1989). Krämer's A medium contained (per liter): 5 g (NH4)2SO4, 5 g urea, 2 g KH2PO4, 1.53 g K2HPO4, 0.249 g MgSO4.7H2O, 50 g glucose, 0.01 g FeSO4.7H2O, 0.01 g MnSO4.H2O, 0.01 g CaCl2.2H2O, 0.03 mg ZnSO4.7H2O, 0.1 mg H3BO3, 0.07 mg […], 0.01 mg NiCl2.2H2O, 0.03 mg CuCl2.2H2O, 0.1 mg as Mo^+6 from (NH4)6Mo7O24-4H2O and 1 μg biotin. The pH was adjusted to 7.0.
For treatments, 4.2 v/v % of inoculum was added to 100 mL medium volume in 500 mL baffled shake flasks. Conditions for the treatments included 37° C. throughout the experiment and 250 rpm agitation. Sodium salicylate (0, 1 mM or 2 mM) was added 1 hour following inoculation. At 0.45-0.6 OD600 nm induction of the monatin operon genes was initiated. IPTG at 0.5 mM was used for induction, and additions at the time of induction included 0.5 mM pyridoxine hydrochloride and 0.04 mM pyridoxal-5′-phosphate (“PLP”). Additions of 1 g L-tryptophan, 5 g/L sodium pyruvate and 10 μg/mL ampicillin were made 3 hours following induction. Samples for monatin and dry cell weight determination were taken at 23.5 and 48 hours.
Monatin analysis was conducted as described in Example 13.

E. coli BL21DE3 AP pET32 = experiment: Monatin excretion with Tween 20, E. coli BL21DE3 with or without Arabidopsis auxin transporter gene; format: cell-based, Escherichia coli; conditions: 0.2% Tween 20
Description: For inoculum preparation, the E. coli strains were grown overnight at 37° C. and 250 rpm in Luria-Bertani (“LB”) medium with 100 μg/mL ampicillin and 50 μg/mL kanamycin. For the experimental treatments, Trp-1+glucose medium, a minimal medium that has been used for increased production of tryptophan in E. coli cells (Zeman, et al. Folia Microbiol. 35:200-204, (1990)), was prepared as follows. To 800 mL nanopure water the following reagents were added: 2 g (NH4)2SO4 and 13.6 g KH2PO4. The pH was adjusted to 7.0, the volume was increased to 948 mL, and the medium was autoclaved. Following sterilization, 0.2 g MgSO4.7H2O, 0.01 g CaCl2.2H2O, and 0.5 mg FeSO4.7H2O were added to the medium in a 1.8 mL volume followed by addition of 0.2 mL of Neidhardt's micronutrient solution. Neidhardt F. C., et al., “Culture medium for Enterobacteria,” J. Bacteriol. 119:736-746, (1974). Neidhardt's medium includes (per liter): 0.18 g (NH4)6(MO7)24.4H2O, 1.24 g H3BO3, 0.36 g CoCl2.6H2O, 0.12 g CuSO4 (anhydrous), 0.8 g MnCl2.4H2O, and 0.14 g ZnSO4.7H2O. A 50% glucose solution was prepared separately and sterile-filtered. Forty mL of glucose solution and 10 mL of 1 M 3-Morpholinopropanesulfonic acid (“MOPS”) buffer were added to the base medium (950 mL) for a 1 L final volume.
Conditions for the treatments included 250 rpm agitation throughout and 37° C. up to induction, then, 30° C. following induction. At 0.54-0.62 OD600 nm, induction of the plasmid genes was initiated. At induction, 1.0 mM IPTG, 0.5% L-arabinose, 0.5 mM pyridoxine hydrochloride, and 0.2 mLs of Balch's vitamins were added. Additions of 10 g/L L-tryptophan, 10 g/L sodium pyruvate, 0.04 mM pyridoxal-5′-phosphate (“PLP”) and 0 or 0.2% Tween® 20 (polyoxyethylene 20-sorbitan monolaurate) were made 3 hours following induction.

[5] = E. coli BL21 (DE3)::aspCproA pET30, 10 μM CCCP
[6] = E. coli BL21 (DE3)::aspCproA pET30, 10 μM CCCP + 10 μM CCCP
[7] = E. coli MG1655::aspCproA pProNde, 10 μM CCCP
[8] = Arabidopsis auxin transporter gene on pProNde del, n = 3
[9] = no auxin transporter gene on pProNde del, n = 3

For `N#CC(C#N)=NNc1cccc(Cl)c1` [CCCP, carbonyl cyanide 3-chlorophenylhydrazone], the increase in monatin/dcw (EmrAB efflux pump; E. coli BL21 (DE3)::aspC proA pET30, one addition (10 μM) of CCCP) was “greater than 1.8 fold”, the increase in monatin/dcw (EmrAB efflux pump; E. coli BL21 (DE3)::aspC proA pET30, two additions (20 μM) of CCCP) was greater than 3.5 fold and the “Monatin/dry cell weight at run hour 10” value (EmrAB efflux pump; [5]) was 6.4 mg/g. The “Monatin/dry cell weight at run hour 15.5” value (EmrAB efflux pump; [5]) was 22.5 mg/g, the “Monatin/dry cell weight at run hour 25.6” value (EmrAB efflux pump; [5]) was 34.3 mg/g and the “Monatin/dry cell weight at run hour 31” value (EmrAB efflux pump; [5]) was 33.0 mg/g. For the same compound, the “Monatin/dry cell weight at run hour 10” value (EmrAB efflux pump; [6]) was 16.2 mg/g, the “Monatin/dry cell weight at run hour 15.5” value (EmrAB efflux pump; [6]) was 38.0 mg/g and the “Monatin/dry cell weight at run hour 25.6” value (EmrAB efflux pump; [6]) was 52.1 mg/g. For the same compound, the “Monatin/dry cell weight at run hour 31” value (EmrAB efflux pump; [6]) was 64.2 mg/g, the “Monatin/dry cell weight at run hour 15.5” value (EmrAB efflux pump; [7]) was 0.7 mg/g and the “Monatin/dry cell weight at run hour 25.6” value (EmrAB efflux pump; [7]) was 6.7 mg/g. The “Monatin/dry cell weight at run hour 31” value (EmrAB efflux pump; [7]) was 12.4 mg/g, the increase in monatin/dcw (EmrAB efflux pump; E. coli MG1655::aspCproA pProNde) was 2 fold and the “Optical Density @ 600 nM, 6 hours” value [1] was 0.034. The “Optical Density @ 600 nM, 24 hours” value [1] was 1.113, the decrease in growth ([2]; deletion strain) was “eighty fold/ninety nine percent decrease in growth” and the “Optical Density @ 600 nM, 6 hours” value ([2]; emrB knockout mutant) was 0.024. The “Optical Density @ 600 nM, 24 hours” value ([2]; emrB knockout mutant) was 0.014.

`O=C(O)CC(O)C(=O)O` (stereo not shown) [malate] was tested, and the “Monatin/dcw, 24 hour average” value ([3]; carbon source 4 g/L initially, 24 hours post induction) was 7.72 mg/g, the “Monatin/dcw, 24 hours” value ([3]; carbon source 4 g/L initially, 24 hours post induction, single flasks) was 7.19 mg/g and 8.25 mg/g and the “higher monatin transported per unit biomass” value ([3]; malate as primary carbon source vs glucose) was 23%.

`O=C([O-])c1ccccc1O.[Na+]` [sodium salicylate, Sodium salicylate] was tested, and the “increase in monatin transported” value ([4]; 1 mM or 2 mM sodium salicylate, 23.5 hours) was “seventy percent increase”, the “increase in monatin efflux” value ([4]; 1 mM or 2 mM sodium salicylate, 48 hours) was “seven percent increase” and the “Monatin/dcw, 23.5 hours” value ([4]; 1 mM sodium salicylate) was 7.41 mg/g. For the same compound, the “Monatin/dcw, 48 hours” value ([4]; 1 mM sodium salicylate) was 9.94 mg/g, the “Monatin/dcw, 23.5 hours” value ([4]; 2 mM sodium salicylate) was 7.54 mg/g and the “Monatin/dcw, 48 hours” value ([4]; 2 mM sodium salicylate) was 9.82 mg/g.

For “polyoxyethylene 20-sorbitan monolaurate [Tween ® 20]”, the “Monatin/dry cell wt., 30 hours” value (E. coli BL21DE3 AP pET32; Arabidopsis auxin transporter gene on pProNde del, n = 2) was 26.7* mg/g, the “Monatin/dry cell wt., 24 hours” value (E. coli BL21DE3 AP pET32; [8]) was 29.4 mg/g and the “Monatin/dry cell wt., 48 hours” value (E. coli BL21DE3 AP pET32; [8]) was 19.7 mg/g. The “Monatin/dry cell wt., 24 hours” value (E. coli BL21DE3 AP pET32; [9]) was 2.2 mg/g, the “Monatin/dry cell wt., 30 hours” value (E. coli BL21DE3 AP pET32; [9]) was 2.5 mg/g and the “Monatin/dry cell wt., 48 hours” value (E. coli BL21DE3 AP pET32; [9]) was 2.2 mg/g.
